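Cultured in 96-well plates, cells were exposed to test compound for 48 hours across five concentrations. GI50 is the concentration that inhibits growth by half.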 The source made the active and inactive calls. Rule as the data show it: active = GI50 up to about 1.1 µM and inactive = higher.
Tests used:
Test in all cases: NCI-60 cell line screen, 48 h
UACC-257 = test system: UACC-257
SN12C = test system: SN12C
HCT-15 = test system: HCT-15
LOX IMVI = test system: LOX IMVI
HOP-92 = test system: HOP-92
OVCAR-8 = test system: OVCAR-8
MDA-MB-435 = test system: MDA-MB-435
NCI-H226 = test system: NCI-H226
SK-MEL-2 = test system: SK-MEL-2
UO-31 = test system: UO-31
CAKI-1 = test system: CAKI-1
KM12 = test system: KM12
NCI-H23 = test system: NCI-H23
IGROV-1 = test system: IGROV-1
K562 = test system: K562
Hs-578T = test system: Hs-578T
TK-10 = test system: TK-10
SK-MEL-5 = test system: SK-MEL-5
RXF 393 = test system: RXF 393
SF-268 = test system: SF-268

SMILES	GI50 (UACC-257)	GI50 (SN12C)	GI50 (HCT-15) [µM]	GI50 (LOX IMVI)	GI50 (HOP-92)	GI50 (OVCAR-8)	GI50 (MDA-MB-435)	GI50 (NCI-H226)	GI50 (SK-MEL-2)	GI50 (UO-31)	GI50 (CAKI-1)	GI50 (KM12)	GI50 (NCI-H23)	GI50 (IGROV-1)	GI50 (K562)	GI50 (Hs-578T)	GI50 (TK-10)	GI50 (SK-MEL-5)	GI50 (RXF 393)	GI50 (SF-268)
COc1ccc(CC/N=C2\OCc3ccccc32)cc1OC	> 100 µM (inactive)	69.3 µM (inactive)	38.8	41.2 µM (inactive)	31.2 µM (inactive)	91.8 µM (inactive)	43.2 µM (inactive)	51.3 µM (inactive)	51.2 µM (inactive)	69 µM (inactive)	62.4 µM (inactive)	31.5 µM (inactive)	32.7 µM (inactive)	67 µM (inactive)	23.4 µM (inactive)	67 µM (inactive)	> 100 µM (inactive)	43.3 µM (inactive)	–	–
CC1(C)N=C(N)N=C(N)N1c1ccc(CCCCc2ccc(Cl)cc2Cl)cc1	0.659 µM (active)	0.502 µM (active)	5.04	0.417 µM (active)	4.08 µM (inactive)	0.598 µM (active)	0.598 µM (active)	–	0.887 µM (active)	21.2 µM (inactive)	2.05 µM (inactive)	0.63 µM (active)	0.339 µM (active)	0.451 µM (active)	42.2 µM (inactive)	4.67 µM (inactive)	3.13 µM (inactive)	1.12 µM (inactive)	0.891 µM (active)	0.382 µM (active)
NC(=O)SCC(=O)Nc1ccc2cccc3c2c1CC3	21.1 µM (inactive)	21.5 µM (inactive)	16.6	6.75 µM (inactive)	0.596 µM (active)	63.4 µM (inactive)	17.4 µM (inactive)	–	17.1 µM (inactive)	41.2 µM (inactive)	42.1 µM (inactive)	36.7 µM (inactive)	23.7 µM (inactive)	> 100 µM (inactive)	12.8 µM (inactive)	47.6 µM (inactive)	27.9 µM (inactive)	26.8 µM (inactive)	26 µM (inactive)	15.3 µM (inactive)
C=CC(=C)CCC(Br)C(C)(C)Cl (stereo not given)	> 100 µM (inactive)	> 100 µM (inactive)	> 100	–	> 100 µM (inactive)	> 100 µM (inactive)	> 100 µM (inactive)	> 100 µM (inactive)	> 100 µM (inactive)	> 100 µM (inactive)	–	> 100 µM (inactive)	> 100 µM (inactive)	> 100 µM (inactive)	> 100 µM (inactive)	> 100 µM (inactive)	> 100 µM (inactive)	> 100 µM (inactive)	> 100 µM (inactive)	> 100 µM (inactive)
CCOC(=O)c1c(CN2CCCC2)n(-c2ccccc2)c2cc(Br)c(O)cc12	17.5 µM (inactive)	16.4 µM (inactive)	20.8	16 µM (inactive)	20 µM (inactive)	22.9 µM (inactive)	18 µM (inactive)	–	18.3 µM (inactive)	12.1 µM (inactive)	17.1 µM (inactive)	16.8 µM (inactive)	19.3 µM (inactive)	16.8 µM (inactive)	18.3 µM (inactive)	26.4 µM (inactive)	20.5 µM (inactive)	13.4 µM (inactive)	12.4 µM (inactive)	19.9 µM (inactive)
c1ccc(C[P+]2(c3ccccc3)c3ccccc3-c3ccccc32)cc1	> 100 µM (inactive)	> 100 µM (inactive)	> 100	> 100 µM (inactive)	> 100 µM (inactive)	> 100 µM (inactive)	> 100 µM (inactive)	> 100 µM (inactive)	–	> 100 µM (inactive)	> 100 µM (inactive)	> 100 µM (inactive)	> 100 µM (inactive)	> 100 µM (inactive)	> 100 µM (inactive)	> 100 µM (inactive)	> 100 µM (inactive)	> 100 µM (inactive)	> 100 µM (inactive)	> 100 µM (inactive)
CC(C)C/N=C(\N)N=C(N)N	> 100 µM (inactive)	> 100 µM (inactive)	> 100	> 100 µM (inactive)	> 100 µM (inactive)	> 100 µM (inactive)	> 100 µM (inactive)	> 100 µM (inactive)	> 100 µM (inactive)	> 100 µM (inactive)	–	> 100 µM (inactive)	> 100 µM (inactive)	> 100 µM (inactive)	> 100 µM (inactive)	> 100 µM (inactive)	> 100 µM (inactive)	> 100 µM (inactive)	> 100 µM (inactive)	> 100 µM (inactive)
O=c1c2ccccc2nc(-c2ccc(Cl)cc2)n1O	24.9 µM (inactive)	35.7 µM (inactive)	9.55	1.11 µM (active)	15.6 µM (inactive)	16.5 µM (inactive)	26.5 µM (inactive)	15.5 µM (inactive)	–	2.2 µM (inactive)	15.2 µM (inactive)	9.53 µM (inactive)	48.4 µM (inactive)	2.19 µM (inactive)	22.9 µM (inactive)	76 µM (inactive)	21.1 µM (inactive)	29.9 µM (inactive)	26.7 µM (inactive)	18.8 µM (inactive)
CCN1CC(C)Cn2c(=O)[nH]c3cc(Br)cc1c32 (stereo not given)	76 µM (inactive)	44.7 µM (inactive)	14.6	21.4 µM (inactive)	–	23.7 µM (inactive)	2.75 µM (inactive)	11.9 µM (inactive)	23.9 µM (inactive)	40.1 µM (inactive)	13.9 µM (inactive)	22.9 µM (inactive)	36.8 µM (inactive)	18.5 µM (inactive)	2.91 µM (inactive)	11 µM (inactive)	25 µM (inactive)	19.1 µM (inactive)	6.9 µM (inactive)	10.9 µM (inactive)
C=CCc1c(O)c2ccccc2[nH]c1=O	> 100 µM (inactive)	> 100 µM (inactive)	> 100	> 100 µM (inactive)	> 100 µM (inactive)	> 100 µM (inactive)	> 100 µM (inactive)	> 100 µM (inactive)	–	> 100 µM (inactive)	> 100 µM (inactive)	> 100 µM (inactive)	> 100 µM (inactive)	> 100 µM (inactive)	> 100 µM (inactive)	> 100 µM (inactive)	> 100 µM (inactive)	> 100 µM (inactive)	–	–
Oc1[nH]c(Nc2ccc(F)c(Cl)c2)nc2ncnc1-2	> 100 µM (inactive)	> 100 µM (inactive)	> 100	> 100 µM (inactive)	> 100 µM (inactive)	> 100 µM (inactive)	> 100 µM (inactive)	> 100 µM (inactive)	> 100 µM (inactive)	> 100 µM (inactive)	> 100 µM (inactive)	> 100 µM (inactive)	> 100 µM (inactive)	> 100 µM (inactive)	–	29.6 µM (inactive)	> 100 µM (inactive)	> 100 µM (inactive)	–	> 100 µM (inactive)
Cc1ccc(C(=O)Oc2ccc(/C=C3\CCC/C(=C\c4ccc(OC(=O)c5ccc(C)cc5)cc4)C3=O)cc2)cc1	> 100 µM (inactive)	> 100 µM (inactive)	> 100	> 100 µM (inactive)	> 100 µM (inactive)	> 100 µM (inactive)	> 100 µM (inactive)	–	> 100 µM (inactive)	> 100 µM (inactive)	> 100 µM (inactive)	> 100 µM (inactive)	> 100 µM (inactive)	> 100 µM (inactive)	–	> 100 µM (inactive)	> 100 µM (inactive)	> 100 µM (inactive)	–	> 100 µM (inactive)
CCOC(=O)NC(Nc1ccc(C(=O)OCC)cc1)(C(F)(F)F)C(F)(F)F	–	> 100 µM (inactive)	42.9	4.26 µM (inactive)	> 100 µM (inactive)	> 100 µM (inactive)	51.2 µM (inactive)	> 100 µM (inactive)	–	42.5 µM (inactive)	–	78.9 µM (inactive)	> 100 µM (inactive)	56.8 µM (inactive)	9.29 µM (inactive)	> 100 µM (inactive)	> 100 µM (inactive)	65.2 µM (inactive)	–	> 100 µM (inactive)
Fc1cccc(F)c1C1SCC2=Nc3ccccc3CN21 (stereo not given)	60.3 µM (inactive)	> 100 µM (inactive)	> 100	> 100 µM (inactive)	71.8 µM (inactive)	–	> 100 µM (inactive)	–	–	96.6 µM (inactive)	> 100 µM (inactive)	54 µM (inactive)	39.8 µM (inactive)	42.5 µM (inactive)	92.3 µM (inactive)	25.4 µM (inactive)	> 100 µM (inactive)	31.4 µM (inactive)	23.9 µM (inactive)	> 10 µM (inactive)
COC(=O)c1ccc(OCc2ccc3nc(-c4ccccc4)c(Cl)nc3c2)cc1	> 100 µM (inactive)	> 100 µM (inactive)	> 100	> 100 µM (inactive)	28.1 µM (inactive)	48 µM (inactive)	74.8 µM (inactive)	–	84.7 µM (inactive)	> 100 µM (inactive)	28.6 µM (inactive)	> 100 µM (inactive)	47.2 µM (inactive)	85.5 µM (inactive)	–	30.1 µM (inactive)	58.2 µM (inactive)	76.6 µM (inactive)	–	42.9 µM (inactive)
CN(C)/C=C1\CCc2ccc([N+](=O)[O-])cc2C1=O	19.1 µM (inactive)	18.3 µM (inactive)	44	19.6 µM (inactive)	–	45.7 µM (inactive)	19.1 µM (inactive)	> 100 µM (inactive)	> 100 µM (inactive)	> 100 µM (inactive)	> 100 µM (inactive)	55.8 µM (inactive)	53.6 µM (inactive)	> 100 µM (inactive)	24.4 µM (inactive)	> 100 µM (inactive)	> 100 µM (inactive)	92.9 µM (inactive)	> 100 µM (inactive)	> 100 µM (inactive)

From ChEMBL document CHEMBL1201862, “PubChem BioAssay data set” (2004)
